Earlier results as cited in PMC7377474, “Preclinical characterization of CPL302-253, a selective inhibitor of PI3Kδ, as the candidate for the inhalatory treatment and prevention of Asthma” (PLoS ONE, 2020).

Biological target: T1, hERG (Homo sapiens, UniProt Q12809)
T1 construct: purchased DiscoverX (Eurofins) SafetyScan44
Settings: available preclinical data; cited from earlier work

T1 sequence (Q12809 whole entry): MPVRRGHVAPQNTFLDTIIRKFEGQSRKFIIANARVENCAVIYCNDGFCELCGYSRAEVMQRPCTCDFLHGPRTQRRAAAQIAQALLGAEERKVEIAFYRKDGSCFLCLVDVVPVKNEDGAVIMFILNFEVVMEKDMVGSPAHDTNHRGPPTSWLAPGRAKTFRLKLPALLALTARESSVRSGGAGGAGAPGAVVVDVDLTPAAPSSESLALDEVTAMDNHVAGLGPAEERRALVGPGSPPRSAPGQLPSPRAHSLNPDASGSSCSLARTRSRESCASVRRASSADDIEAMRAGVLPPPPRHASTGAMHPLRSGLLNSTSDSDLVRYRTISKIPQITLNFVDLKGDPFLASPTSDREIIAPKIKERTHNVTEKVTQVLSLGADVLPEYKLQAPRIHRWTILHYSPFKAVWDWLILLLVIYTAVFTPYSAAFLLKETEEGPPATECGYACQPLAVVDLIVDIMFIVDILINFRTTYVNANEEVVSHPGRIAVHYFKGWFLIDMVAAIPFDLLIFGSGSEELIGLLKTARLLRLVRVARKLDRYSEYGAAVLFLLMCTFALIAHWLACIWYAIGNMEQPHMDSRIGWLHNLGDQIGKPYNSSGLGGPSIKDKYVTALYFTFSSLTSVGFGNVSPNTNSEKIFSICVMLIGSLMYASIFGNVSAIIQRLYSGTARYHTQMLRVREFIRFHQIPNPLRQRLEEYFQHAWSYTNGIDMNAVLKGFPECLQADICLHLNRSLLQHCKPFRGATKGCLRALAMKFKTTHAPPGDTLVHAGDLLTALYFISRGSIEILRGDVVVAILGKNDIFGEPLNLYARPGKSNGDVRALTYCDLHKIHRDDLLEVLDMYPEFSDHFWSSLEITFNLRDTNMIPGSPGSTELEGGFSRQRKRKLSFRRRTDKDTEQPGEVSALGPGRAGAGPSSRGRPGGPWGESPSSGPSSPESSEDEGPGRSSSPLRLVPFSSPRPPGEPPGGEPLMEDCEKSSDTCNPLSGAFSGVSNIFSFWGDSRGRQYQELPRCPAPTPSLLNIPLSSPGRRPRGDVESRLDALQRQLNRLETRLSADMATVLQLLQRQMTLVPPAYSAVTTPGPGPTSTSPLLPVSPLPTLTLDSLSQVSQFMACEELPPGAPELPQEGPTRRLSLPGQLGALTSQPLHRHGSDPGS

**Q.** For CC(C)N1CCN(Cc2cnc(-c3cc(-c4cccc5[nH]ccc45)cc4[nH]ncc34)o2)CC1 [Nemiralisib], which “activity towards hERG” value is on record?
**A.** has activity towards hERG
